In patent US20250262251A1, “THERARONSTIC APPROACH FOR INFLAMMATORY BOWEL DISEASE-ASSOCIATED SPONDYLOARTHRITIS” (Cornell University, priority 2024, published 2025):

Experiments:
[1] = system: Jackson SPF or germ-free C57BL/6 WT mice; test: Fecal short chain fatty acids and 5-ASA in SPF or germ-free mice treated with SAS or BSD; assay type: in vivo, mouse
Procedure: (§1) Gnotobiotic C57BL/6 wild-type (WT) mice were bred and maintained at WCM Gnotobiotic Mouse facility. Specific pathogen free (SPF) C57BL/6 WT mice were ordered from Jackson Laboratory. C57BL/6 Gpr109a^−/− mice were obtained from Marcel van den Brink laboratory and were bred and maintained under SPF conditions at WCM.
(§2) For induction of chemical colitis, 2% dextran sulfate sodium (DSS) (wt/vol) (M.W. 40,000-50,000; Affymetrix, Santa Clara, CA) was added to drinking water and administered ad libitum for 7 days. Mice were then monitored daily for weight loss and survival. Mouse Lipocalin-2 was measured in the cecal content supernatant using sandwich enzyme-linked immunosorbent assay (R&D Systems, Minneapolis, MN).
(§3) To determine drug fecal levels and its impact on fecal metabolites, fecal samples were treated with cold 80% methanol for 4 hours at 4° C. Samples were then centrifuged at 14,000 g for 20 min at 4° C. Supernatants were transferred to a sterile 1.5 ml tube and stored at-80° C. Bacterial supernatants were treated with 4X volume of the 80% methanol. Polar metabolomic analysis was performed by the WCM Proteomics and Metabolomics Core for target polar metabolomics analysis by LC-MS. Metabolites were identified using an in-house library established using chemical standards. Identification required exact mass (within 5ppm) and standard retention times. To determine short chain fatty acids (SCFAs) fecal levels, target metabolomics were performed using liquid chromatography-quadruple-time of flight mass spectrometry as previously described^62. Relative metabolite quantitation was performed based on peak area for each metabolite evaluated and normalized by sample weight.

DSS-induced colitis = DSS-induced colitis in SPF WT mice; assay type: in vivo, mouse; details: 2% DSS 7 days, SAS 300 mg/kg/day
Procedure: as §1, §2
(§4) All animal experiments were performed with 6-8-week-old WT, Gpr109a^−/− and heterozygous littermate mice. Both female and male mice were used with random and equal assignment of same sex to each experimental group. All animal studies were carried out in accordance with protocols approved by the Institutional Animal Care and Use Committee at WCM.

[2] = system: butyrate receptor Gpr109a; test: DSS-induced colitis in Gpr109a-deficient and heterozygous mice; assay type: in vivo, mouse
Procedure: as §1, §2, §4

[3] = system: fecal samples of IBD-pSpA subjects; test: Fecal metabolomics of IBD-pSpA subjects treated with SAS; assay type: in vivo, human; details: responders
Procedure: as §3

[4] = system: patients with a clinical diagnosis of IBD and ASAS-defined SpA; test: Prospective clinical study of SAS therapy in IBD-pSpA subjects (BASDAI, ASDAS, HBI, CRP); assay type: in vivo, human; parameters: proportion of treated patients who tolerated increase: dose or concentration left out as unconfirmed
Description: Eligible patients of any gender were between the ages of 18-80 with ulcerative colitis (UC) or Crohn's disease (CD) and ASAS criteria of pSpA defined as the presence of peripheral arthritis, enthesitis or dactylitis^50. Patients with active SpA, defined as ASDAS>1.3 and/or BASDAI≥4, were eligible to participate^51, 52. […] Participants who declined therapy or were intolerant of SAS were followed as standard of care controls. […] All patients provided voluntary informed consent and the study ethics was approved by the Weill Cornell institutional review board (IRB 1504016115).
The primary endpoint of our analysis was clinical response in BASDAI, defined conservatively as a reduction in BASDAI of >2. Secondary endpoints were clinical response in ASDAS and Harvey Bradshaw Index (HBI) for CD defined as reduction in ASDAS of ≥1.1 at week 12 post-study initiation^51 or a decrease in HBI of ≥3^54, respectively. Exploratory analysis included absolute reduction in BASDAI, ASDAS, CRP, and HBI.
To determine significance of […] variables, Student's t test was applied if two groups were compared, otherwise two-way ANOVA test was used. For non-parametric data, Wilcoxon matched-pairs signed-rank test was calculated when paired analyses were carried, otherwise Mann-Whitney test was applied. If required, Bonferroni or Tukey tests were applied for multiple comparison correction. Metagenomic and transcriptomic analyses were performed in R studio (Boston, MA) using R package ‘phyloseq’^66 and plots were constructed in ‘ggplot2’ or GraphPad (San Diego, CA). Differential gene expression analysis was performed with DESeq2^72. Differential taxa or pathway abundance was assessed using linear discriminant analysis (LDA) effect size (LEfSe)^31. Correlation between two continuous variables (e.g. fecal drug levels, Δ BASDAI, alpha diversity) was determined with linear regression models. For discriminating responders from non-responders, we fit linear regression models on the relative abundances of select taxa and constructed corresponding ROC curves. Area under the curve (AUC) and P values were computed using R.

[5] = system: gnotobiotic mice colonized with IBD-pSpA donor microbiomes; test: Gnotobiotic mice colonized with responder or non-responder microbiomes: fecal butyrate and DSS colitis; assay type: in vivo, mouse
Procedure: as §1, §2
For gnotobiotic experiments, germ-free (GF) mice were gavaged with 1 g of homogenized patient fecal samples diluted in 10 ml of reduced PBS under anaerobic conditions, as previously described^53. Mice gavaged with ATCC 27768 F. prausnitzii received 1×10^9 colony forming units (CFU) grown under anaerobic conditions at log-phase in Yeast Casitone Fatty Acids Broth with Carbohydrate media (YCFAC, Anaerobe Systems, Morgan Hill, CA).
as §3

E. rectale DSM 17629 = test: E. rectale in vitro culture with sulfapyridine (but expression); assay type: cell-based, Eubacterium rectale; details: SP 1 mM
Procedure: (§5) CFU from F. prausnitzii cultures were assessed anaerobically in YCFA agar. Growth was measured by absorbance, OD600, on SpectraMax Plus (Molecular Devices, San Jose, CA). RNA isolation was performed using RNeasy PowerMicrobiome kit (Qiagen, Hilden, Germany) following the manufacture instructions. RNA was then quantified by Nanodrop prior to reverse transcription with qScript cDNA SuperMix kit (Quantabio, Beverly, MA) or RNAseq library preparation.
(§6) qPCR was performed on an Applied BioSciences Quant Studio 6 Flex Real-time PCR (Applied Biosystems, Waltham, MA) using PerfeCTa SYBR Green Fast mix, Low ROX (Quantabio, Beverly, MA). The following primers were used: for 16S rRNA gene −515F 5′ […] 3′ (SEQ ID NO:1), −926R 5′ […] 3′ (SEQ ID NO:2)^71 F. prausnitzii but gene F: 5′ […] 3′ SEQ ID NO:3), R: 5′ […] 3′ (SEQ ID NO:4) and E. rectale but gene F: 5′ […] 3′, SEQ ID NO:5) R: 5′ […] 3′ (SEQ ID NO:6) (designed on the PrimerQuest Tool from IDT, Coralville, IA). The thermocycler program was as follows: initial cycle of 95° C. for 60 s, followed by 40 PCR cycles at 95° C. for 5 s, 60° C. for 15 s, 72° C. for 15 s. Relative levels of the but target gene was determined by calculating the Δ Ct to the conserved 16S rRNA gene expression.

[6] = system: F. prausnitzii ATCC 27768; test: F. prausnitzii in vitro culture with sulfapyridine (growth, RNA-seq, qPCR, mass spectrometry); assay type: cell-based, Faecalibacterium prausnitzii
Procedure: as §3, §5
RNA-seq library preparation and sequencing were performed by WCM Genomics Core. For library preparation, the Illumina Stranded Total RNA Prep kit was used. High-throughput sequencing was performed using the PE 2×50 cycles protocol in the NovaSeq 6000 Illumina platform targeting 10 million reads/sample. Bioinformatics and statistical analysis were then performed by the WCM Bioinformatics Core. Samples were aligned with STAR^67 to NCBI reference genome GCF_000154385.1 (F. prausnitzii M21/2). Quality control was performed with QoRTs^68 on aligned BAM files. Counts per gene were then calculated using featureCounts^69. BioCyc^70 analyses were performed with clusterProfiler to identify pathways/gene sets that are overrepresented among the differentially expressed genes.
as §6

[7] = SPF WT mice, 300 mg/kg/day, day 14
[8] = RNA-seq, SP 1 mM vs NaOH vehicle

For O=C(O)CCNC(=O)c1ccc(/N=N/c2ccc(O)c(C(=O)O)c2)cc1 [BSD, balsalazide], the “fecal butyrate levels compared to H2O vehicle controls” value [1, 7] was “numerically higher” and the “conversion of prodrug by the mouse gut microbiome (5-ASA detection in fecal samples)” value ([1]; SPF mice, day 7 post-treatment initiation) was “efficiently converted”.
With O=C(O)c1cc(/N=N/c2ccc(S(=O)(=O)Nc3ccccn3)cc2)ccc1O [SAS, sulfasalazine] the “cecal lipocalin compared to control treated mice” value (DSS-induced colitis) was “reduced”, the “mortality compared to control treated mice” value (DSS-induced colitis) was “significantly reduced” and the “weight loss compared to control treated mice” value (DSS-induced colitis) was “attenuated”. For the same molecule, the “inflammation measured by lipocalin” value ([2]; mice deficient for Gpr109a) was “no effect”, the survival ([2]; mice deficient for Gpr109a) was “no effect” and the weight loss ([2]; mice deficient for Gpr109a) was “no effect”. For the same molecule, the “intestinal inflammation measured by cecal lipocalin” value ([2]; mice heterozygous for Gpr109a) was “decreased intestinal inflammation”, the survival ([2]; mice heterozygous for Gpr109a) was “significantly improved” and the weight loss ([2]; mice heterozygous for Gpr109a) was “reduced weight loss”. The “thymine fecal abundance after SAS treatment” value ([3]; P=.016) was “significantly reduced”, the “fecal deoxyuridine levels after SAS treatment” value ([3]; P=.05) was “concomitant increase” and the “proportion of treated patients who tolerated increase” value ([4]; 22 patients treated with SAS, n=11) was 50%. The “absolute score reduction in BASDAI compared to controls” value ([4]; baseline to week 12) was “significant absolute score reduction”, the “difference in CRP alone compared to controls” value ([4]; baseline to week 12) was “no difference” and the “reduction in all joint disease activity scores, 2 mg versus 4 mg daily” value ([4]; comparison between SAS doses) was “equivalent reduction”. For the same molecule, the “impact of baseline biologic or mesalamine therapy on change in disease activity scores following SAS treatment” value ([4]; human, in vivo) was “did not impact”, the “proportion with clinical improvement using ASDAS” value ([4]; week 12, controls 0%, P=.07) was 28.6% and the “proportion of patients achieving clinical response in joint symptoms (reduction in BASDAI of >2)” value ([4]; week 12, controls 9.1%, P=.04) was 45.4%. For the same molecule, the “abundance of fecal butyrate following SAS treatment” value ([5]; mice colonized with non-responder microbiome) was “not changed”, the “abundance of fecal butyrate following SAS treatment” value ([5]; mice colonized with responder microbiomes) was “higher abundance” and the weight loss ([5]; non-responder microbiomes, DSS) was “not responsive”. For the same molecule, the “intestinal inflammation measured by lipocalin” value ([5]; responder microbiomes, DSS) was “reduced”, the weight loss ([5]; responder microbiomes, DSS) was “reduced” and the “fecal butyrate levels post-treatment” value ([1]; GF mice) was “no changes”. For the same molecule, the fecal acetate [1, 7] was “no significant change”, the “fecal butyrate levels compared to H2O vehicle controls” value [1, 7] was “significant increase” and the fecal propionate [1, 7] was “no significant change”.
In the case of Nc1ccc(S(=O)(=O)Nc2ccccn2)cc1 [SP, sulfapyridine], the “expression of but in E. rectale” value (E. rectale DSM 17629) was “did not change”, the “effect of dose on F. prausnitzii growth” value ([6]; 1 mM, anaerobic culture) was “sub-inhibitory” and the “folT (folate ECF transporter S component FolT) expression” value ([6]; RNA-seq, SP 1 mM) was “upregulation”. For the same molecule, the “acetate kinase (ackA) expression” value [6, 8] was “downregulation”, the but expression [6, 8] was “concomitant increase” and the “phosphate acetyltransferase (pta) expression” value [6, 8] was “downregulation”. For the same molecule, the thymidine kinase expression ([6]; bacterial cultures with SP) was “significant increase”, the thymine metabolites ([6]; bacterial cultures with SP) was “corresponding decrease” and the butyrate production ([6]; mass spectrometry after 22 and 46 hours of culture, both timepoints) was “robustly increased”. The “induction of but in response to SP on supplementation with folate” value ([6]; qPCR, SP plus folate 566 μM) was “abrogated”.
